Test results as given in paper PMC5218480 (PLoS ONE, 2017).

Test system: MV-4-11 cells
Experiment: Gene expression microarray analysis (Affymetrix PrimeView) and GSEA
Type: cell-based, human
Design: RFU PODN (11730768_x_at) / Fold change /veh PODN (11730768_x_at) / RFU LINC00158 (11744669_a_at) / Fold change /veh LINC00158 (11744669_a_at) / RFU DUSP10 (11751237_a_at) / Fold change /veh DUSP10 (11751237_a_at) / RFU ID3 (11757404_x_at) / Fold change /veh ID3 (11757404_x_at) / RFU PLEKHG5 (11737974_s_at) / Fold change /veh PLEKHG5 (11737974_s_at) / RFU LRRC4B (11730491_at) / Fold change /veh LRRC4B (11730491_at) / RFU GIMAP4 (11747438_a_at) / Fold change /veh GIMAP4 (11747438_a_at) / RFU KRT8 (11758183_x_at) / Fold change /veh KRT8 (11758183_x_at) / RFU CNN1 (11734310_a_at) / Fold change /veh CNN1 (11734310_a_at) / RFU VPS37D (11726825_at) / Fold change /veh VPS37D (11726825_at) / RFU C10orf10 (11716522_x_at) / Fold change /veh C10orf10 (11716522_x_at) / RFU KIR2DL2 /// KIR2DL4 /// KIR2DL5A /// KIR2DL5B /// KIR2DS1 /// KIR2DS2 /// KIR2DS3 /// KIR2DS4 /// KIR3DL3 /// KIR3DL3 /// KIR3DS1 (11738374_at) / Fold change /veh KIR2DL2 /// KIR2DL4 /// KIR2DL5A /// KIR2DL5B /// KIR2DS1 /// KIR2DS2 /// KIR2DS3 /// KIR2DS4 /// KIR3DL3 /// KIR3DL3 /// KIR3DS1 (11738374_at) / RFU C1QL1 (11718748_at) / Fold change /veh C1QL1 (11718748_at) / RFU TMPRSS4 (11747572_a_at) / Fold change /veh TMPRSS4 (11747572_a_at) / RFU HAMP (11756126_x_at) / Fold change /veh HAMP (11756126_x_at) / RFU RNFT2 (11725882_a_at) / Fold change /veh RNFT2 (11725882_a_at) / RFU NR4A2 (11747474_a_at) / Fold change /veh NR4A2 (11747474_a_at) / RFU ABCC12 (11746883_a_at) / Fold change /veh ABCC12 (11746883_a_at) / RFU TMEM136 (11760407_x_at) / Fold change /veh TMEM136 (11760407_x_at) / RFU CLDN22 /// WWC2 (11732394_at) / Fold change /veh CLDN22 /// WWC2 (11732394_at) / RFU HLA-DPB1 (11760878_x_at) / Fold change /veh HLA-DPB1 (11760878_x_at) / RFU SPINT1 (11716480_a_at) / Fold change /veh SPINT1 (11716480_a_at) / RFU GAP43 (11754022_s_at) / Fold change /veh GAP43 (11754022_s_at) / RFU A4GNT (11735810_at) / Fold change /veh A4GNT (11735810_at) / RFU PRB3 (11715151_x_at) / Fold change /veh PRB3 (11715151_x_at) / RFU TUBB4B (11761932_at) / Fold change /veh TUBB4B (11761932_at) / RFU CAPN14 (11732068_a_at) / Fold change /veh CAPN14 (11732068_a_at) / RFU TMCC2 (11721928_a_at) / Fold change /veh TMCC2 (11721928_a_at) / RFU IRGQ (11745062_a_at) / Fold change /veh IRGQ (11745062_a_at) / RFU FAM174B (11720279_a_at) / Fold change /veh FAM174B (11720279_a_at) / RFU TMPRSS4 (11748680_a_at) / Fold change /veh TMPRSS4 (11748680_a_at) / RFU FAM212B (11763350_a_at) / Fold change /veh FAM212B (11763350_a_at) / RFU PLEKHG5 (11743358_a_at) / Fold change /veh PLEKHG5 (11743358_a_at) / RFU ZSCAN30 (11745921_a_at) / Fold change /veh ZSCAN30 (11745921_a_at) / RFU CMKLR1 (11741424_a_at) / Fold change /veh CMKLR1 (11741424_a_at) / RFU LOC101060620 /// MAPK8IP1 (11723275_at) / Fold change /veh LOC101060620 /// MAPK8IP1 (11723275_at) / RFU SPTSSB (11747773_x_at) / Fold change /veh SPTSSB (11747773_x_at) / RFU PRSS12 (11739890_at) / Fold change /veh PRSS12 (11739890_at) / RFU BIN1 (11741810_x_at) / Fold change /veh BIN1 (11741810_x_at) / RFU WNT11 (11732464_a_at) / Fold change /veh WNT11 (11732464_a_at) / RFU C10orf10 (11716521_a_at) / Fold change /veh C10orf10 (11716521_a_at) / RFU C5orf56 (11738089_at) / Fold change /veh C5orf56 (11738089_at) / RFU CYB561 (11721691_x_at) / Fold change /veh CYB561 (11721691_x_at) / RFU ANKRD19P (11752326_a_at) / Fold change /veh ANKRD19P (11752326_a_at) / RFU OR2T12 /// OR2T33 /// OR2T8 (11738714_s_at) / Fold change /veh OR2T12 /// OR2T33 /// OR2T8 (11738714_s_at) / RFU VCAN (11748164_a_at) / Fold change /veh VCAN (11748164_a_at) / RFU JSRP1 (11732532_at) / Fold change /veh JSRP1 (11732532_at) / RFU KRTAP10-11 (11738290_x_at) / Fold change /veh KRTAP10-11 (11738290_x_at) / RFU MYO3A (11730013_a_at) / Fold change /veh MYO3A (11730013_a_at) / RFU EBF3 (11725865_a_at) / Fold change /veh EBF3 (11725865_a_at) / RFU CAMK2N1 (11719241_x_at) / Fold change /veh CAMK2N1 (11719241_x_at) / RFU C5orf56 (11738088_a_at) / Fold change /veh C5orf56 (11738088_a_at) / RFU OLFML3 (11715873_a_at) / Fold change /veh OLFML3 (11715873_a_at) / RFU LOC100653217 /// NTM (11731650_a_at) / Fold change /veh LOC100653217 /// NTM (11731650_a_at) / RFU MAPK11 (11762145_a_at) / Fold change /veh MAPK11 (11762145_a_at) / RFU FIZ1 (11724087_x_at) / Fold change /veh FIZ1 (11724087_x_at) / RFU OASL (11726364_x_at) / Fold change /veh OASL (11726364_x_at) / RFU SOX15 (11748057_x_at) / Fold change /veh SOX15 (11748057_x_at) / RFU CD79A (11719716_a_at) / Fold change /veh CD79A (11719716_a_at) / RFU HIST1H1D (11736915_at) / Fold change /veh HIST1H1D (11736915_at) / RFU CASKIN2 (11723855_a_at) / Fold change /veh CASKIN2 (11723855_a_at) / RFU LOC730098 (11760151_x_at) / Fold change /veh LOC730098 (11760151_x_at) / RFU OR4N2 (11742367_at) / Fold change /veh OR4N2 (11742367_at) / RFU PRRT2 (11749266_a_at) / Fold change /veh PRRT2 (11749266_a_at) / RFU SNX32 (11753110_a_at) / Fold change /veh SNX32 (11753110_a_at) / RFU CDHR5 (11726645_a_at) / Fold change /veh CDHR5 (11726645_a_at) / RFU RCAN1 (11760418_a_at) / Fold change /veh RCAN1 (11760418_a_at) / RFU FAM167A (11723789_a_at) / Fold change /veh FAM167A (11723789_a_at) / RFU FAM26E (11764081_at) / Fold change /veh FAM26E (11764081_at) / RFU ISYNA1 (11749810_s_at) / Fold change /veh ISYNA1 (11749810_s_at) / RFU ACY1 (11761880_at) / Fold change /veh ACY1 (11761880_at) / RFU 11764098_at / Fold change /veh 11764098_at / RFU SAMD14 (11745864_x_at) / Fold change /veh SAMD14 (11745864_x_at) / RFU NPB (11741838_a_at) / Fold change /veh NPB (11741838_a_at) / RFU TMPRSS6 (11731388_a_at) / Fold change /veh TMPRSS6 (11731388_a_at) / RFU KRTAP10-2 (11738614_at) / Fold change /veh KRTAP10-2 (11738614_at) / RFU ARHGAP8 /// PRR5-ARHGAP8 (11727945_x_at) / Fold change /veh ARHGAP8 /// PRR5-ARHGAP8 (11727945_x_at) / RFU KRTAP5-7 /// NADSYN1 (11734609_at) / Fold change /veh KRTAP5-7 /// NADSYN1 (11734609_at) / RFU RASL12 (11751679_a_at) / Fold change /veh RASL12 (11751679_a_at) / RFU CDKN2B (11736163_a_at) / Fold change /veh CDKN2B (11736163_a_at) / RFU PRF1 (11729649_at) / Fold change /veh PRF1 (11729649_at) / RFU, ZNF638 /// ZNF638-IT1 / Fold change vs veh, ZNF638 /// ZNF638-IT1 / RFU, PANK3 / Fold change vs veh, PANK3 / RFU, SH3YL1 / Fold change vs veh, SH3YL1 / RFU, ZEB2 / Fold change vs veh, ZEB2 / RFU, NRIP1 / Fold change vs veh, NRIP1 / RFU, PTTG1IP / Fold change vs veh, PTTG1IP / RFU, CAPN2 / Fold change vs veh, CAPN2 / RFU, MED14 / Fold change vs veh, MED14 / RFU, SNORA58 / Fold change vs veh, SNORA58 / RFU, C1orf63 / Fold change vs veh, C1orf63 / RFU, LRRFIP1 / Fold change vs veh, LRRFIP1 / RFU, NDUFAF7 / Fold change vs veh, NDUFAF7 / RFU, SLC12A2 / Fold change vs veh, SLC12A2 / RFU, IBTK / Fold change vs veh, IBTK / RFU, ESF1 / Fold change vs veh, ESF1 / Fold change vs veh, TMEM50B / RFU, TAOK1 / Fold change vs veh, TAOK1 / RFU, ACBD3 / Fold change vs veh, ACBD3 / RFU, TMA16 / Fold change vs veh, TMA16 / RFU, RWDD3 / Fold change vs veh, RWDD3 / RFU, BCAT1 / Fold change vs veh, BCAT1 / RFU, EDEM3 / Fold change vs veh, EDEM3 / RFU, TMEM33 / Fold change vs veh, TMEM33 / RFU, WDR75 / Fold change vs veh, WDR75 / RFU, AHCTF1 / Fold change vs veh, AHCTF1 / RFU, TFRC / Fold change vs veh, TFRC / RFU, ZDHHC17 / Fold change vs veh, ZDHHC17 / RFU, NOM1 / Fold change vs veh, NOM1 / RFU, ARL8B / Fold change vs veh, ARL8B / RFU, ZBTB11 / Fold change vs veh, ZBTB11 / RFU, TAMM41 / Fold change vs veh, TAMM41 / RFU, KIAA1704 /// LOC100996395 / Fold change vs veh, KIAA1704 /// LOC100996395 / RFU, ING1 / Fold change vs veh, ING1 / RFU, TRMT61B / Fold change vs veh, TRMT61B / RFU, FUBP3 / Fold change vs veh, FUBP3 / RFU, TP53 / Fold change vs veh, TP53 / RFU, TNKS2 / Fold change vs veh, TNKS2 / RFU, ZFP14 / Fold change vs veh, ZFP14 / RFU, ACTR2 / Fold change vs veh, ACTR2 / RFU, PPP3R1 / Fold change vs veh, PPP3R1 / RFU, PIK3R1 / Fold change vs veh, PIK3R1 / RFU, HNRNPA1 / Fold change vs veh, HNRNPA1 / RFU, RNF170 / Fold change vs veh, RNF170 / RFU, ZNF28 / Fold change vs veh, ZNF28 / RFU, RNGTT / Fold change vs veh, RNGTT / RFU, OGT / Fold change vs veh, OGT / RFU, BRD1 / Fold change vs veh, BRD1 / RFU, MARS / Fold change vs veh, MARS / RFU, ZNF655 / Fold change vs veh, ZNF655 / RFU, FAHD1 / Fold change vs veh, FAHD1 / RFU, BDP1 / Fold change vs veh, BDP1 / RFU, LRRCC1 / Fold change vs veh, LRRCC1 / RFU, ARID1A / Fold change vs veh, ARID1A / RFU, ZNF146 / Fold change vs veh, ZNF146 / RFU, ZNF330 / Fold change vs veh, ZNF330 / RFU, GPN3 / Fold change vs veh, GPN3 / RFU, C9orf123 / Fold change vs veh, C9orf123 / RFU, N4BP2L2 / Fold change vs veh, N4BP2L2 / RFU, ARFIP1 / Fold change vs veh, ARFIP1 / RFU, FAM179B / Fold change vs veh, FAM179B / RFU, BCL10 / Fold change vs veh, BCL10 / RFU, UHRF1BP1L / Fold change vs veh, UHRF1BP1L / RFU, BET1 / Fold change vs veh, BET1 / RFU, CNOT2 / Fold change vs veh, CNOT2 / RFU, ZNF268 / Fold change vs veh, ZNF268 / Fold change vs veh, ZNF507 / RFU, DGCR2 / Fold change vs veh, DGCR2 / RFU, WDSUB1 / Fold change vs veh, WDSUB1 / Fold change vs veh, HSP90B1 /// MIR3652 / RFU, ADSS / Fold change vs veh, ADSS / RFU, GK / Fold change vs veh, GK / RFU, ZNF148 / Fold change vs veh, ZNF148 / RFU, TAF9 / Fold change vs veh, TAF9 / RFU, SLC1A5 / Fold change vs veh, SLC1A5 / RFU, SLMO2 / Fold change vs veh, SLMO2 / RFU, ABCC4 / Fold change vs veh, ABCC4 / RFU, LOC101060439 /// RAP1B / Fold change vs veh, LOC101060439 /// RAP1B / RFU, RFX7 / Fold change vs veh, RFX7 / RFU, GTPBP10 / Fold change vs veh, GTPBP10 / RFU, CNEP1R1 / Fold change vs veh, CNEP1R1 / RFU, BIVM-ERCC5 /// ERCC5 / Fold change vs veh, BIVM-ERCC5 /// ERCC5 / RFU, ILF3 / Fold change vs veh, ILF3 / RFU 11762660_at / Fold change /veh 11762660_at / RFU VCAN (11757783_s_at) / Fold change /veh VCAN (11757783_s_at) / RFU DDX43 (11728927_at) / Fold change /veh DDX43 (11728927_at) / RFU KRT8 (11758188_x_at) / Fold change /veh KRT8 (11758188_x_at) / RFU NKD1 (11759106_at) / Fold change /veh NKD1 (11759106_at) / RFU SRD5A1 (11742802_a_at) / Fold change /veh SRD5A1 (11742802_a_at) / RFU TPSAB1 /// TPSB2 (11721975_s_at) / Fold change /veh TPSAB1 /// TPSB2 (11721975_s_at) / RFU GSTM3 (11746129_a_at) / Fold change /veh GSTM3 (11746129_a_at) / RFU IL23R (11737362_x_at) / Fold change /veh IL23R (11737362_x_at) / RFU TMEM51 (11727254_a_at) / Fold change /veh TMEM51 (11727254_a_at) / RFU PIWIL2 (11732686_x_at) / Fold change /veh PIWIL2 (11732686_x_at) / RFU ORM1 (11744905_x_at) / Fold change /veh ORM1 (11744905_x_at) / RFU CCDC152 (11743942_at) / Fold change /veh CCDC152 (11743942_at) / RFU ECM1 (11717891_a_at) / Fold change /veh ECM1 (11717891_a_at) / RFU IL23R (11748794_a_at) / Fold change /veh IL23R (11748794_a_at) / RFU TNFAIP8L3 (11732012_x_at) / Fold change /veh TNFAIP8L3 (11732012_x_at) / RFU MBOAT4 (11741988_at) / Fold change /veh MBOAT4 (11741988_at) / RFU 11764193_at / Fold change /veh 11764193_at / RFU TMEM53 (11763286_at) / Fold change /veh TMEM53 (11763286_at) / RFU MAGEB2 (11727129_at) / Fold change /veh MAGEB2 (11727129_at) / RFU TMEM200A (11744735_a_at) / Fold change /veh TMEM200A (11744735_a_at) / RFU CCDC152 (11751479_a_at) / Fold change /veh CCDC152 (11751479_a_at) / RFU FAM211A (11726209_a_at) / Fold change /veh FAM211A (11726209_a_at) / RFU RGS16 (11746705_a_at) / Fold change /veh RGS16 (11746705_a_at) / RFU VCAN (11755009_s_at) / Fold change /veh VCAN (11755009_s_at) / RFU RHOB (11743442_s_at) / Fold change /veh RHOB (11743442_s_at) / RFU RGS16 (11720943_a_at) / Fold change /veh RGS16 (11720943_a_at) / RFU RGS16 (11720944_at) / Fold change /veh RGS16 (11720944_at) / RFU, VPS4B / Fold change vs veh, VPS4B / RFU, CREB1 / Fold change vs veh, CREB1 / RFU, DNAJC13 / Fold change vs veh, DNAJC13 / RFU, GNAQ / Fold change vs veh, GNAQ / RFU, CDK5R1 / Fold change vs veh, CDK5R1 / RFU, ZRANB3 / Fold change vs veh, ZRANB3 / RFU, CUL4A / Fold change vs veh, CUL4A / RFU, CCNY / Fold change vs veh, CCNY / RFU, UFL1 / Fold change vs veh, UFL1 / RFU, COG3 / Fold change vs veh, COG3 / RFU, DIAPH2 / Fold change vs veh, DIAPH2 / RFU, SKA2 / Fold change vs veh, SKA2 / RFU, AFF3 / Fold change vs veh, AFF3 / RFU, LMF1 / Fold change vs veh, LMF1 / RFU, IPO11 / Fold change vs veh, IPO11 / RFU, DFFB / Fold change vs veh, DFFB / RFU, FOXP1 / Fold change vs veh, FOXP1 / RFU, CARD8 / Fold change vs veh, CARD8 / RFU, STRN3 / Fold change vs veh, STRN3 / RFU, ADK / Fold change vs veh, ADK / RFU, RASSF2 / Fold change vs veh, RASSF2 / RFU, WIPF1 / Fold change vs veh, WIPF1 / RFU, LARP1B / Fold change vs veh, LARP1B / RFU, RASA1 / Fold change vs veh, RASA1 / RFU, RB1 / Fold change vs veh, RB1 / RFU, PPFIA1 / Fold change vs veh, PPFIA1 / RFU, MAT2A / Fold change vs veh, MAT2A / RFU, CCT5 / Fold change vs veh, CCT5 / RFU, WDR92 / Fold change vs veh, WDR92 / RFU, CUX1 / Fold change vs veh, CUX1 / RFU, TTC7A / Fold change vs veh, TTC7A / RFU, TMEM135 / Fold change vs veh, TMEM135 / RFU, DEPTOR / Fold change vs veh, DEPTOR / RFU, CPM / Fold change vs veh, CPM / RFU, DNAJB6 / Fold change vs veh, DNAJB6 / RFU, CACNA2D3 / Fold change vs veh, CACNA2D3 / RFU, DTX4 / Fold change vs veh, DTX4 / RFU, TFCP2 / Fold change vs veh, TFCP2 / RFU, GMCL1 /// GMCL1P1 / Fold change vs veh, GMCL1 /// GMCL1P1 / RFU, AEBP2 / Fold change vs veh, AEBP2 / RFU, SNHG1 /// SNORD22 /// SNORD25 /// SNORD26 /// SNORD27 /// SNORD28 /// SNORD29 /// SNORD31 / Fold change vs veh, SNHG1 /// SNORD22 /// SNORD25 /// SNORD26 /// SNORD27 /// SNORD28 /// SNORD29 /// SNORD31 / Fold change (Aza/veh), C12orf56 (ProbeSet 11735607_a_at) / Fold change (ACY-1035/veh), C12orf56 (ProbeSet 11735607_a_at) / Fold change (Aza/veh), FGFR1OP (ProbeSet 11751329_s_at) / Fold change (ACY-1035/veh), FGFR1OP (ProbeSet 11751329_s_at) / Fold change (Aza/veh), VPS36 (ProbeSet 11739960_a_at) / Fold change (ACY-1035/veh), VPS36 (ProbeSet 11739960_a_at) / RFU SYPL1 (11715823_x_at) / Fold change /veh SYPL1 (11715823_x_at) / RFU IGFBP7 (11715501_s_at) / Fold change /veh IGFBP7 (11715501_s_at) / RFU REEP3 (11722064_at) / Fold change /veh REEP3 (11722064_at) / RFU IGLL1 (11728026_x_at) / Fold change /veh IGLL1 (11728026_x_at): dose or concentration left out as unconfirmed
Conditions: ProbeSet 11758170_s_at; LIST D

Nc1ccc(-c2cccs2)cc1NC(=O)c1ccc2c(c1)cc(C1CC1)n2CCN1CCOCC1 [ACY-1035]
Fold change vs veh, DIAPH2: 1.00
